Read-outs that look alike come from different tables or passages of the source.

What is called IC50 is the concentration that gives 50% inhibition.

Assay [1] has as its system human prostate PC3-mm2 tumor cell line. The experiment in a line: In vitro cell culture growth assay (MTS), PC3-mm2. It is filed as cell-based. The settings on record: Homo sapiens, PC3MM2, 72 h, MTS cell growth assay, three days after drug treatment, PC3-mm2 cells; read-out: IC50 PC3-mm2. (In general: Tetrazolium assays rely on reduction of a dye to a coloured formazan, in cell work by metabolically active cells.)

For another assay, the target named is PI3K-γ (Homo sapiens, UniProt P48736). The experiment in a line: PI3K-gamma fluorescence polarization assay. Particulars: read-out: IC50 PI3Kγ.
Sequence of PI3K-γ (P48736 whole entry, species assumed): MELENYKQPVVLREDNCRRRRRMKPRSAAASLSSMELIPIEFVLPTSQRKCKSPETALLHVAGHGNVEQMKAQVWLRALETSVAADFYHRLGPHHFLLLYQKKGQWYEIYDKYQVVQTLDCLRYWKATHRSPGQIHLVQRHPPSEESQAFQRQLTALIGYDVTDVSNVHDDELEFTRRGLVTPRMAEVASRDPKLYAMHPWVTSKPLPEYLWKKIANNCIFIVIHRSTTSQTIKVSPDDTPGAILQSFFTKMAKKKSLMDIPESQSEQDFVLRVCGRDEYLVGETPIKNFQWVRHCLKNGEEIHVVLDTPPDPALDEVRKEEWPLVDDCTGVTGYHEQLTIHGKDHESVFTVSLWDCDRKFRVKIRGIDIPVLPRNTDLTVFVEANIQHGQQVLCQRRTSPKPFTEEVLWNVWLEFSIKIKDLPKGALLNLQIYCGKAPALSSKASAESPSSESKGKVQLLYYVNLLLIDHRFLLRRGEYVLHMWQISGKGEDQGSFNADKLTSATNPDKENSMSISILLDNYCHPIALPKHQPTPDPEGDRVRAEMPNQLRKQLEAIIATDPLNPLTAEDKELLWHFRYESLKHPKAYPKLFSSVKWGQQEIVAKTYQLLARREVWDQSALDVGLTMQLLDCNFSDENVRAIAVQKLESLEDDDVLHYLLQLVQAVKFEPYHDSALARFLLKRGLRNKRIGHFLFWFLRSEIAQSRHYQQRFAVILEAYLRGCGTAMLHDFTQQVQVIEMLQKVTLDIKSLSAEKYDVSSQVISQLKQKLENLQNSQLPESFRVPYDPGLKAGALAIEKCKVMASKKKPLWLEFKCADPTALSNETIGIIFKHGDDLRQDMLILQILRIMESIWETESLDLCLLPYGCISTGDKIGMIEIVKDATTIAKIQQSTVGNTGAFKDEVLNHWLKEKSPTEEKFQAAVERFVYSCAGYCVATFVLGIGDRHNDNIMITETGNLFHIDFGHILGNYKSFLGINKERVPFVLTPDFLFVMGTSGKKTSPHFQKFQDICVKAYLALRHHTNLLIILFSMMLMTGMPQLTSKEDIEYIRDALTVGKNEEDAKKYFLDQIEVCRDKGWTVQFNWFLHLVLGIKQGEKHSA
The target in a further assay is Human mTOR (FLAG-TOR) (Homo sapiens, UniProt P42345). The experiment in a line: mTOR kinase assay (DELFIA format, purified enzyme). It is filed as biochemical. Particulars: read-out: IC50 mTOR.
Sequence of Human mTOR (FLAG-TOR) (P42345 1360-2549 limits assumed): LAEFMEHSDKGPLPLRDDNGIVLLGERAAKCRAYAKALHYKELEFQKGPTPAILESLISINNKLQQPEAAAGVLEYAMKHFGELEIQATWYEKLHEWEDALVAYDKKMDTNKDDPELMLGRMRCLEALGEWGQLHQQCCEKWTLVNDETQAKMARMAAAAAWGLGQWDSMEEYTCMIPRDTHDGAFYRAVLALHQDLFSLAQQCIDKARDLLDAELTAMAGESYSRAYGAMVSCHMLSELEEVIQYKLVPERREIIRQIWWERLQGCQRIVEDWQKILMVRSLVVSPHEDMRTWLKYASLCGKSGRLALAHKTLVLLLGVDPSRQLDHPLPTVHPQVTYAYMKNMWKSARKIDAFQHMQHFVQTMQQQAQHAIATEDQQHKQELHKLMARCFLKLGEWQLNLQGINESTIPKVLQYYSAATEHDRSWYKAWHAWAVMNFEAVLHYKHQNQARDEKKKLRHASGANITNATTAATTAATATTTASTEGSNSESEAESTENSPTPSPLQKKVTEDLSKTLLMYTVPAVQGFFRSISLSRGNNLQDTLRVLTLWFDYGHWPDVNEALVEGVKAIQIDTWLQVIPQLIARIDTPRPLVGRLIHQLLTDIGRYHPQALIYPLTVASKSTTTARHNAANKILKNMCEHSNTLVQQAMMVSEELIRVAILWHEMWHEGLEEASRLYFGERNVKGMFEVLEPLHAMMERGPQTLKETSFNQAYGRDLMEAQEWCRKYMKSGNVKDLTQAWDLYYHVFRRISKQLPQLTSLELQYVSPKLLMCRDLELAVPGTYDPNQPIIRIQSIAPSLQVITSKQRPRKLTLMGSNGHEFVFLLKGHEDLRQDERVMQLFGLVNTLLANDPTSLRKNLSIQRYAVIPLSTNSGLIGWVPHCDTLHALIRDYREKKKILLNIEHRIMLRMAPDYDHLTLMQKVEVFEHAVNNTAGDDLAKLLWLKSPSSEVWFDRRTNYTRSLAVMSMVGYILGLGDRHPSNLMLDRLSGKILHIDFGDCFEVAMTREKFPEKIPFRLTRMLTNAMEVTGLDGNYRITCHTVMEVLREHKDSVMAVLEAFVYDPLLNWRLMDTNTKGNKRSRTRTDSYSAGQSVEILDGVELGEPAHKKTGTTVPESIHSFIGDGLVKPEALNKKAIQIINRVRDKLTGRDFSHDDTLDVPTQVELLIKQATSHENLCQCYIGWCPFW
Assay [2] relates to human breast MDA-MB-361 tumor cell line. The experiment in a line: In vitro cell culture growth assay (MTS), MDA-MB-361. The settings on record: Homo sapiens, MTS cell growth assay, three days after drug treatment, MDA-MB-361 cells, read-out: IC50 MDA-MB-361. It is filed as cell-based.
The target of another assay is PI3K-α (Homo sapiens, UniProt P42336). The experiment in a line: PI3K-alpha fluorescence polarization assay. Particulars: read-out: IC50 PI3Kα.
Sequence of PI3K-α (P42336 whole entry, species assumed): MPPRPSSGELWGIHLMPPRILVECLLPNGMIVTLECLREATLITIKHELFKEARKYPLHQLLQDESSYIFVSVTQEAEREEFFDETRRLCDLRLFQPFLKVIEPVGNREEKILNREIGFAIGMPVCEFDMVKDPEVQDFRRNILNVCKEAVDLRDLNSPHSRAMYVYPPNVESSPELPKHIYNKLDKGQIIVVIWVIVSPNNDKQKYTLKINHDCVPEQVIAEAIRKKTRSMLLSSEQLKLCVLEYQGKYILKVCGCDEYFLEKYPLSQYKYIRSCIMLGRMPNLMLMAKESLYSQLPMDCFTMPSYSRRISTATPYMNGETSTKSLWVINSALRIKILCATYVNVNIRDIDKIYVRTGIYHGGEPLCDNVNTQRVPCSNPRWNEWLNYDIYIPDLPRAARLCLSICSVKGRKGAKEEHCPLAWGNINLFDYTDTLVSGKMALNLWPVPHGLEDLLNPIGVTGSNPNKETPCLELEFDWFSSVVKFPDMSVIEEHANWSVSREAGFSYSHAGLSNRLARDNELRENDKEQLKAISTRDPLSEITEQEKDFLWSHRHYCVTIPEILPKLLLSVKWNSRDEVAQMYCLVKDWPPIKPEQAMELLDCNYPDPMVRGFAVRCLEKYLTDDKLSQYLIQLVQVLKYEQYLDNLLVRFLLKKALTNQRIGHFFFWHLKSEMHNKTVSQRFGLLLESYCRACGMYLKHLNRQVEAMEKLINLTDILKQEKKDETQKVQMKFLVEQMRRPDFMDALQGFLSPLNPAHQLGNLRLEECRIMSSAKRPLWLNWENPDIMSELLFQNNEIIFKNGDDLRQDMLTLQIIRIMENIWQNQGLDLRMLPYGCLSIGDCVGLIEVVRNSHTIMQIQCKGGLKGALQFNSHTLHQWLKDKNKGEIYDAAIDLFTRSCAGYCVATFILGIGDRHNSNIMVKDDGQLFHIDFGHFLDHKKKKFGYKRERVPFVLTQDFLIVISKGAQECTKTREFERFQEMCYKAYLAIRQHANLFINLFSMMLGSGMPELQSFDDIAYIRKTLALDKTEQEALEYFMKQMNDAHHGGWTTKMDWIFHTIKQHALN
Sequence of PI3K-α (P27986 whole entry partner, species assumed): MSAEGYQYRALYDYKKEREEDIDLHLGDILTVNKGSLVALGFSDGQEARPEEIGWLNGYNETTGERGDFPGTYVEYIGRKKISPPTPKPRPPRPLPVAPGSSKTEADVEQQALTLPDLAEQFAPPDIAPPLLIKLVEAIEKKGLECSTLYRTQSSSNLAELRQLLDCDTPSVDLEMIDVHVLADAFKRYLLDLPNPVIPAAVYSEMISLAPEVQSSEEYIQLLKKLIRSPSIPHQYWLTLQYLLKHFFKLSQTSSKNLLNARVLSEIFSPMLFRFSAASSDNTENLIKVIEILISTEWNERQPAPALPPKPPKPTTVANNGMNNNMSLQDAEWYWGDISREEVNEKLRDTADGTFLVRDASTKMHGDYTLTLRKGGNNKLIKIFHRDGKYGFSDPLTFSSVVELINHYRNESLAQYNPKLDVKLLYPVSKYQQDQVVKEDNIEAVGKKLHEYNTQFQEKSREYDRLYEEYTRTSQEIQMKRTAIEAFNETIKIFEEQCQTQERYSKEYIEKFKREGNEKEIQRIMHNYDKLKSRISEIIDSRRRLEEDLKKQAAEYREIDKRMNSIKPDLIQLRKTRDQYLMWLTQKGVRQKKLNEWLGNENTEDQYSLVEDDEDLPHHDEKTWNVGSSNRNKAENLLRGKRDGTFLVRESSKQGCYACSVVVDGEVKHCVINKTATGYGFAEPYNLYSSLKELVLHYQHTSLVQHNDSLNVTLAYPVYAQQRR

With `CN(C)C(=O)c1ccc(NC(=O)Nc2ccc(-c3nc(N4CCOCC4)nc(N4C5CCC4COC5)n3)cc2)cc1` [Example 695, N,N-dimethyl-4-[({4-[4-morpholin-4-yl-6-(3-oxa-8-azabicyclo[3.2.1]oct-8-yl)-1,3,5-triazin-2-yl]phenyl}carbamoyl)amino]benzamide], the IC50 in assay [1] was 7 nM; on PI3K-γ, 70.5 nM; on Human mTOR (FLAG-TOR), 0.28 nM; in assay [2] (72 h), 6 nM; on PI3K-α, 4 nM.
Consider `CNC(=O)c1ccc(NC(=O)Nc2ccc(-c3nc(N4CCOCC4)nc(N4C5CCC4COC5)n3)cc2)cc1` [Example 696, N-methyl-4-[({4-[4-morpholin-4-yl-6-(3-oxa-8-azabicyclo[3.2.1]oct-8-yl)-1,3,5-triazin-2-yl]phenyl}carbamoyl)amino]benzamide], for which the IC50 in assay [1] was found to be 13 nM; at PI3K-γ, 73.5 nM; at Human mTOR (FLAG-TOR), 0.275 nM; in assay [2] (MDA-MB-361, 72 h) it was 13 nM; at PI3K-α it was 4.5 nM.
Consider `CN1CCN(C(=O)c2ccc(NC(=O)Nc3ccc(-c4nc(N5CCOCC5)nc(N5C6CCC5COC6)n4)cc3)cc2)CC1` [Example 697, 1-{4-[(4-methylpiperazin-1-yl)carbonyl]phenyl}-3-{4-[4-morpholin-4-yl-6-(3-oxa-8-azabicyclo[3.2.1]oct-8-yl)-1,3,5-triazin-2-yl]phenyl}urea], for which the IC50 in assay [1] was < 30 nM; on PI3K-γ, 42.7 nM; at Human mTOR (FLAG-TOR) it was 0.459 nM; in assay [2] (MDA-MB-361, 72 h) it was < 30 nM; on PI3K-α, 2.7 nM.
In the case of `CN(C)CCN(C)C(=O)c1ccc(NC(=O)Nc2ccc(-c3nc(N4CCOCC4)nc(N4C5CCC4COC5)n3)cc2)cc1` [Example 698, N-[2-(dimethylamino)ethyl]-N-methyl-4-[({4-[4-morpholin-4-yl-6-(3-oxa-8-azabicyclo[3.2.1]oct-8-yl)-1,3,5-triazin-2-yl]phenyl}carbamoyl)amino]benzamide], the IC50 in assay [1] was 6 nM; at PI3K-γ, 44.7 nM; on Human mTOR (FLAG-TOR), 0.302 nM; in assay [2] (72 h), < 3 nM; at PI3K-α, 2.7 nM.
The corresponding values for `O=C(Nc1ccc(C(=O)NCCO)cc1)Nc1ccc(-c2nc(N3CCOCC3)nc(N3C4CCC3COC4)n2)cc1` [Example 699, N-(2-hydroxyethyl)-4-[({4-[4-morpholin-4-yl-6-(3-oxa-8-azabicyclo[3.2.1]oct-8-yl)-1,3,5-triazin-2-yl]phenyl}carbamoyl)amino]benzamide] are 40 nM, 62.5 nM, 0.3 nM, 36 nM and 5 nM.
The corresponding values for `CN(C)CCCNC(=O)c1ccc(NC(=O)Nc2ccc(-c3nc(N4CCOCC4)nc(N4C5CCC4COC5)n3)cc2)cc1` [Example 700, N-[3-(dimethylamino)propyl]-4-[({4-[4-morpholin-4-yl-6-(3-oxa-8-azabicyclo[3.2.1]oct-8-yl)-1,3,5-triazin-2-yl]phenyl}carbamoyl)amino]benzamide] are 20 nM, 41.5 nM, 0.53 nM, 5 nM and 2.5 nM.
The corresponding values for `CNCCN(C)C(=O)c1ccc(NC(=O)Nc2ccc(-c3nc(N4CCOCC4)nc(N4C5CCC4COC5)n3)cc2)cc1` [Example 701, N-methyl-N-[2-(methylamino)ethyl]-4-[({4-[4-morpholin-4-yl-6-(3-oxa-8-azabicyclo[3.2.1]oct-8-yl)-1,3,5-triazin-2-yl]phenyl}carbamoyl)amino]benzamide] are < 30 nM, 25 nM, 0.36 nM, < 30 nM and 2 nM.
Consider `CC1CN(C(=O)c2ccc(NC(=O)Nc3ccc(-c4nc(N5CCOCC5)nc(N5C6CCC5COC6)n4)cc3)cc2)CC(C)N1` (stereo not shown) [Example 703, 1-{4-[(3,5-dimethylpiperazin-1-yl)carbonyl]phenyl}-3-{4-[4-morpholin-4-yl-6-(3-oxa-8-azabicyclo[3.2.1]oct-8-yl)-1,3,5-triazin-2-yl]phenyl}urea], for which the IC50 in assay [1] was 13 nM; on PI3K-γ, 23.5 nM; on Human mTOR (FLAG-TOR), 0.51 nM; in assay [2] (MDA-MB-361, 72 h) it was < 3 nM; on PI3K-α, 1.5 nM.
In the case of `O=C(Nc1ccc(-c2nc(N3CCOCC3)nc(N3C4CCC3COC4)n2)cc1)Nc1ccnc(Cl)c1` [Example 746, 1-(2-chloropyridin-4-yl)-3-{4-[4-morpholin-4-yl-6-(3-oxa-8-azabicyclo[3.2.1]oct-8-yl)-1,3,5-triazin-2-yl]phenyl}urea], the half-inhibitory concentration (IC50) in assay [1] worked out at 118 nM; at PI3K-γ it was 99 nM; at Human mTOR (FLAG-TOR), 1.27 nM; in assay [2] (72 h) it was 93 nM; on PI3K-α, 23.5 nM.
In the case of `O=C(Nc1ccc(-c2nc(N3CCOCC3)nc(N3C4CCC3COC4)n2)cc1)Nc1ccc(-c2nc(N3CCOCC3)nc(N3C4CCC3COC4)n2)cc1` [Example 751, 1,3-bis{4-[4-morpholin-4-yl-6-(3-oxa-8-azabicyclo[3.2.1]oct-8-yl)-1,3,5-triazin-2-yl]phenyl}urea], the IC50 in assay [1] worked out at 238 nM; on PI3K-γ, 404 nM; on Human mTOR (FLAG-TOR) it was 3 nM; in assay [2] (MDA-MB-361, 72 h), 144 nM; on PI3K-α, 143 nM.
With `CN(C)C1CCN(C(=O)c2ccc(NC(=O)Nc3ccc(-c4nc(N5CCOCC5)nc(N5C6CCC5COC6)n4)cc3)cc2)CC1` [Example 752, 1-(4-{[4-(dimethylamino)piperidin-1-yl]carbonyl}phenyl)-3-{4-[4-morpholin-4-yl-6-(3-oxa-8-azabicyclo[3.2.1]oct-8-yl)-1,3,5-triazin-2-yl]phenyl}urea], the IC50 is 6 nM in assay [1]; 18.5 nM on PI3K-γ; 0.29 nM on Human mTOR (FLAG-TOR); < 3 nM in assay [2] (MDA-MB-361, 72 h); 1.2 nM at PI3K-α.
For `CN1CCN(CCNC(=O)c2ccc(NC(=O)Nc3ccc(-c4nc(N5CCOCC5)nc(N5C6CCC5COC6)n4)cc3)cc2)CC1` [Example 753, N-[2-(4-methylpiperazin-1-yl)ethyl]-4-[({4-[4-morpholin-4-yl-6-(3-oxa-8-azabicyclo[3.2.1]oct-8-yl)-1,3,5-triazin-2-yl]phenyl}carbamoyl)amino]benzamide], the IC50 in assay [1] was 14 nM; at PI3K-γ, 31 nM; on Human mTOR (FLAG-TOR) it was 0.315 nM; in assay [2] (72 h), 4 nM; at PI3K-α, 2 nM.
As for `CC(C)N1CCN(C(=O)c2ccc(NC(=O)Nc3ccc(-c4nc(N5CCOCC5)nc(N5C6CCC5COC6)n4)cc3)cc2)CC1` [Example 754, 1-{4-[(4-isopropylpiperazin-1-yl)carbonyl]phenyl}-3-{4-[4-morpholin-4-yl-6-(3-oxa-8-azabicyclo[3.2.1]oct-8-yl)-1,3,5-triazin-2-yl]phenyl}urea], the IC50 in assay [1] amounted to 70.8 nM; at PI3K-γ, 28 nM; at Human mTOR (FLAG-TOR) it was 0.327 nM; in assay [2] (MDA-MB-361, 72 h), 31.3 nM; at PI3K-α it was 3 nM.
The corresponding values for `O=C(Nc1ccc(C(=O)N2CCN(C3CCCC3)CC2)cc1)Nc1ccc(-c2nc(N3CCOCC3)nc(N3C4CCC3COC4)n2)cc1` [Example 755, 1-{4-[(4-cyclopentylpiperazin-1-yl)carbonyl]phenyl}-3-{4-[4-morpholin-4-yl-6-(3-oxa-8-azabicyclo[3.2.1]oct-8-yl)-1,3,5-triazin-2-yl]phenyl}urea] are 13 nM, 26.5 nM, 0.57 nM, 3 nM and 2 nM.
The corresponding values for `O=C(Nc1ccc(C(=O)N2CCNCC2)cc1)Nc1ccc(-c2nc(N3CCOCC3)nc(N3C4CCC3COC4)n2)cc1` [Example 756, 1-{4-[4-morpholin-4-yl-6-(3-oxa-8-azabicyclo[3.2.1]oct-8-yl)-1,3,5-triazin-2-yl]phenyl}-3-[4-(piperazin-1-ylcarbonyl)phenyl]urea] are 12 nM, 7 nM, 0.2 nM, < 3 nM and 0.5 nM.
For `O=C(Nc1ccc(C(=O)N2CCC(N3CCOCC3)CC2)cc1)Nc1ccc(-c2nc(N3CCOCC3)nc(N3C4CCC3COC4)n2)cc1` [Example 757, 1-{4-[4-morpholin-4-yl-6-(3-oxa-8-azabicyclo[3.2.1]oct-8-yl)-1,3,5-triazin-2-yl]phenyl}-3-{4-[(4-morpholin-4-ylpiperidin-1-yl)carbonyl]phenyl}urea] the same measures were 6 nM, 37.5 nM, 0.28 nM, < 3 nM and 5.5 nM.
As for `O=C(Nc1ccc(C(=O)NCCN2CCCC2)cc1)Nc1ccc(-c2nc(N3CCOCC3)nc(N3C4CCC3COC4)n2)cc1` [Example 758, 4-[({4-[4-morpholin-4-yl-6-(3-oxa-8-azabicyclo[3.2.1]oct-8-yl)-1,3,5-triazin-2-yl]phenyl}carbamoyl)amino]-N-(2-pyrrolidin-1-ylethyl)benzamide], the IC50 in assay [1] was 14 nM; at PI3K-γ it was 16 nM; at Human mTOR (FLAG-TOR), 0.17 nM; in assay [2] (72 h), 3 nM; at PI3K-α, 2 nM.
